Laboratory results reported in PubChem BioAssay AID1259321 (Sanford-Burnham Center for Chemical Genomics, 2017).
Calls of active or inactive are those of the source.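 Rule for the calls: active = half-maximal concentration for changing protein binding to DNA, from the fitted dose curve, below 10 micromolar; inactive = the rest.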

These compounds were tested against Nuclear receptor subfamily 1 group D member 1 (Homo sapiens) (UniProt P20393) (assay: modulators of Rev-erb alpha DNA binding, dose response, biochemical, FITC-DNA, fluorescence polarization (AID 1259321)).
Chain of Nuclear receptor subfamily 1 group D member 1 (Homo sapiens) (P20393 whole entry, looked up): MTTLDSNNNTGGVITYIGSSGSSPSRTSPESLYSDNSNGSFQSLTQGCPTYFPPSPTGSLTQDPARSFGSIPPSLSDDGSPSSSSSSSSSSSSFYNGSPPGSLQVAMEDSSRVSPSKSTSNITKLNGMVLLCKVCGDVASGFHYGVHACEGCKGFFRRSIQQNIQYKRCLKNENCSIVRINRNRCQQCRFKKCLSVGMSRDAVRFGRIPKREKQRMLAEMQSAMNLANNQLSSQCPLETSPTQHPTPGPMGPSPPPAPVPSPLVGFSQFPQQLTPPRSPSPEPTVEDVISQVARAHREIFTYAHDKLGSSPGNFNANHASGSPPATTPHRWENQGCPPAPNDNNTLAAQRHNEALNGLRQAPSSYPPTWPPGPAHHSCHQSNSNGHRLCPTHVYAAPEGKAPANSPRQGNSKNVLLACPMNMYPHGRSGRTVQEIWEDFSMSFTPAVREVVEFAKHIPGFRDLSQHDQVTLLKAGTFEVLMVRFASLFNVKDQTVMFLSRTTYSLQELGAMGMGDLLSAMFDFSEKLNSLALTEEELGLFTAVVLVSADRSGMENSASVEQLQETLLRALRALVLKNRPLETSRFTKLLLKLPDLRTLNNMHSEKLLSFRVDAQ
`COc1ccc(-n2c(SCC(=O)Nc3cc(C)on3)nc3c([nH]c4ccccc43)c2=O)cc1` was tested, and the IC50 was “inactive”.
With `Cc1nc2nc(SCC(=O)c3ccccc3)[nH]c2cc1Br` the IC50 was > 40 µM (inactive).
`COc1ccc(-c2nc(NC(=O)c3ccc(OCC(=O)Nc4ccc(F)cc4)c(OC)c3)sc2C)cc1` was tested, and the IC50 was > 40 µM (inactive).
For `O=C(CSc1ncnc2c1oc1ccccc12)Nc1ccc2c(c1)OCCO2`, the IC50 was > 40 µM (inactive).
For `COc1cccc(NC(=O)CSc2ncnc3c2oc2ccccc23)c1`, the IC50 was > 40 µM (inactive).
In the case of `Cc1ccc2[nH]c(=O)c(CN(C(=O)c3cccs3)c3ccccc3)cc2c1`, the IC50 is reported as 3.81 µM.
In the case of `CCNC(=O)C[C@H]1CC[C@H]2[C@@H](COc3ccc(NC(=O)c4ccc5c(c4)OCO5)cc3C(=O)N2C)O1`, the IC50 is reported as “inactive”.
`CSc1nnc2c3cc(F)ccc3n(Cc3ccccc3)c2n1` showed an IC50 of 7.93 µM.
`CN(C)c1ccc(N=Nc2ccccc2C(=O)OCC(=O)N2CCCCCC2)cc1` was tested, and the IC50 was “inactive”.
`O=C1c2cccc3c(N4CCCCC4)ccc(c23)C(=O)N1c1cccc(O)c1` was tested, and the IC50 was > 40 µM (inactive).
For `CN1C(=O)c2ccc(C(=O)Nc3ccc(Br)cn3)cc2C1=O`, the IC50 was > 40 µM (inactive).
In the case of `COc1ccc(NC(=O)NNC(=O)COc2ccc3cc(Br)ccc3c2)c(OC)c1`, the IC50 is reported as > 40 µM (inactive).
With `CCN(CC)C(=O)CSC1=C(C#N)C(c2cccs2)C=C(C)N1` (stereo not drawn) the IC50 was “inactive”.
With `O=[N+]([O-])c1ccc(N2CCCC2)c2ccncc12` the IC50 was > 40 µM (inactive).
In the case of `O=C(CCc1c[nH]c2ccccc12)NCCc1ccc2c(c1)OCCO2`, the IC50 is reported as 1.08 µM.
`CC(C)CCN1C(=O)c2cccc3c(N)ccc(c23)C1=O` was tested, and the IC50 was 2.83 µM.
For `COC(=O)c1ccc(N/C=C\C(=O)c2ccc3c(c2)OCO3)cc1`, the IC50 was 7.08 µM.
With `CN1C(=O)c2cccc3c(N)ccc(c23)C1=O` the IC50 was “inactive”.
`O=C(Nc1ccccc1C(F)(F)F)OCCN1C(=O)CCC12CCC(c1ccccc1)CC2` (stereo not drawn) was tested, and the IC50 was 7.99 µM.
With `CCN1C(=O)/C(=C\N2CCN(c3cccc(Cl)c3)CC2)SC1=S` the IC50 was 8.83 µM.
For `Cc1ccsc1C(=O)Nc1ccc(O)c(-c2nc3ccccc3s2)c1`, the IC50 was 6.87 µM.
`Cc1cc(C)c2nc(SCC(=O)Nc3cc(C)on3)c(C#N)cc2c1` gave an IC50 of 4.17 µM.
For `Cc1cc(C)c(NC(=O)CSc2nc3ncc(Br)cc3[nH]2)c(C)c1`, the IC50 was > 40 µM (inactive).
In the case of `CCOC(=O)Nc1ccc2c(COC(=O)CNS(=O)(=O)c3ccc(NC(C)=O)cc3)cc(=O)oc2c1`, the IC50 is reported as 0.548 µM.
Compound `CCOc1ccc(NC(=O)CSc2ncnc3c2sc2ccccc23)cc1` has an IC50 of 6.32 µM.
With `COC(=O)c1ccc(Cn2ccc3ccc(-c4ccc5ccn(C(=O)c6ccccc6OC)c5c4)cc32)cc1` the IC50 was 5.24 µM.
With `Cc1ccc2cc(-c3noc(C4CCCCC4)n3)c(=O)[nH]c2c1` the IC50 was “inactive”.
For `Cc1ccccc1OCC(=O)Nc1ccc2c(c1)C(=O)c1ccccc1C2=O`, the IC50 was > 40 µM (inactive).
`O=C(Cn1c(=S)[nH]c2ccccc2c1=O)NCCc1ccccc1` showed an IC50 of 8.97 µM.
For `COc1ccc(-c2c(C)nc3c(-c4ccsc4)cnn3c2N)cc1`, the IC50 was 9.42 µM.
In the case of `CC(C)Nc1nc(-c2cccnc2)nc(-c2ccc(Cl)cc2)c1C#N`, the IC50 is reported as > 40 µM (inactive).
With `COc1ccc(Sc2nc3ccccc3n3c(C(F)(F)F)nnc23)cc1` the IC50 was 3.01 µM.
`CC(=O)Oc1ccc2oc(/C=C/N(C)C)c([N+](=O)[O-])c2c1` showed an IC50 of 3.91 µM.
In the case of `Cc1c(Cl)cccc1NC(=O)Cn1cc(C(F)(F)F)cc(Cl)c1=O`, the IC50 is reported as > 40 µM (inactive).
Compound `CCOc1ccc(C(=O)Nc2nc(C)c(C(=O)OC)s2)cc1` has an IC50 of 2.2 µM.
For `COc1ccc(-c2ccc3c(c2)c(Sc2ccccc2)c(-c2cc(OC)cc(OC)c2)n3C)cc1`, the IC50 was 6.89 µM.
`COc1ccc(CC(=O)Nc2ccc(-c3noc(-c4ccccc4OC)n3)cc2)cc1` was tested, and the IC50 was 4.17 µM.
For `CCOc1ccc(OCC)c(NC(=O)c2[nH]c(C)c(C(C)=O)c2C)c1`, the IC50 was 3.56 µM.
Work on `O=C(c1ccccc1)N1N=C(c2ccccc2O)CC1c1ccccc1` (stereo not drawn) yielded an IC50 of 2.32 µM.
Work on `CC(C)CCSc1nc(N)c(C#N)cc1C#N` yielded an IC50 of 2.17 µM.
For `CCc1ccc(NC(=O)CSc2nnc(-c3n[nH]c4ccccc34)n2-c2ccccc2)cc1`, the IC50 was 2.64 µM.
For `CCCOc1ccc(/C(CC)=N/NC(=O)C2(C)CC2(Br)Br)cc1` (stereo not drawn), the IC50 was “inactive”.
In the case of `COc1ccc2[nH]c(C(=O)Nc3ccc(C)c(F)c3)cc2c1`, the IC50 is reported as 0.647 µM.
For `COc1ccc(Cn2ccc3ccc(-c4ccc5ccn(C(=O)c6cccc(OC)c6)c5c4)cc32)cc1`, the IC50 was > 40 µM (inactive).
For `COc1ccc(C(=O)Nc2nnc(Cc3cccs3)s2)cc1OC`, the IC50 was “inactive”.
`COc1ccc(C(=O)NCCNc2nc3cc(C)cc(C)c3cc2C#N)nc1` was tested, and the IC50 was “inactive”.
With `CCOC(=O)CC(=O)CSc1nc(-c2ccc3c(c2)OCO3)cc(C(F)(F)F)c1C#N` the IC50 was “inactive”.
`COc1ccc(Cl)cc1CC1(C)C(=O)Nc2ccc(-c3ccccc3OC)cc21` (stereo not drawn) showed an IC50 of 3.44 µM.
For `CCOC(=O)CSc1nc2cc3c(cc2cc1C#N)OCO3`, the IC50 was > 40 µM (inactive).
`Cc1ccccc1NC(=O)c1sc(NC(=O)COc2ccccc2)c(C#N)c1C` was tested, and the IC50 was > 40 µM (inactive).
For `COC(=O)c1ccc(C(=O)OC)c(NC(=O)N2c3ccccc3Sc3ccccc32)c1`, the IC50 was > 40 µM (inactive).
In the case of `COc1ccc2cc(OCC(=O)NNC(=O)Nc3ccc(F)cc3)ccc2c1`, the IC50 is reported as > 40 µM (inactive).
`Cc1ccc(C)c2nc(SCC(=O)N3CCCc4ccccc43)c(C#N)cc12` was tested, and the IC50 was 6.12 µM.
`Oc1ccc2ccc3cccc[n+]3c2c1` was tested, and the IC50 was > 40 µM (inactive).
With `CC(C)CC[n+]1ccccc1/C=C/c1ccc(N(C)C)cc1` the IC50 was “inactive”.
For `O=C(CN1CCCCC1)Nc1c2c(nc3ccccc13)N(c1ccccc1)CC2`, the IC50 was 3.26 µM.
For `CC(=O)c1cc2c(cc1N/C(=N/S(=O)(=O)c1ccc(C)cc1)c1ccc(Cl)cc1)OCO2`, the IC50 was > 40 µM (inactive).
In the case of `Cc1cccc2cc(C#N)c(SCC(=O)N3CC(=O)Nc4ccccc43)nc12`, the IC50 is reported as “inactive”.
For `O=c1c2ccccc2[nH]c(=S)n1Cc1ccc2c(c1)OCO2`, the IC50 was 2.5 µM.
In the case of `COc1ccc(-c2cc(C3CC3)nc(SCC(=O)c3cccs3)c2C#N)cc1`, the IC50 is reported as 6.69 µM.
With `COc1ccccc1NC(=O)c1sc2nc(Cc3ccccc3)cc(C(F)(F)F)c2c1N` the IC50 was “inactive”.
With `O=C(CCS(=O)(=O)c1ccccc1)Nc1ccccc1-c1nc2ccccc2s1` the IC50 was 0.518 µM.
`Cn1cncc1C#Cc1ccc2cc(C3(O)CCCCC3)oc(=O)c2c1` was tested, and the IC50 was “inactive”.
In the case of `Nc1cccc(N2C(=O)c3cccc4c(N)ccc(c34)C2=O)c1`, the IC50 is reported as “inactive”.
With `Cn1c(SCC(=O)Nc2cccc(F)c2)nnc1-c1cc2ccccc2o1` the IC50 was “inactive”.
Work on `Fc1cnc(N2CCc3ccccc32)nc1N1CCc2ccccc21` yielded an IC50 of 3.22 µM.
In the case of `CN(c1ccc(O)cc1)c1ccc([N+](=O)[O-])c2nonc12`, the IC50 is reported as 6 µM.
In the case of `c1ccc2nc(-c3ccc(N4CCOCC4)cc3)ccc2c1`, the IC50 is reported as > 40 µM (inactive).
With `CN1CCS/C1=C/C=C1/SC(=S)N(Cc2ccccc2)C1=O` the IC50 was “inactive”.
In the case of `COc1ccc(-c2cc(C(F)(F)F)c(C#N)c(SCC(=O)Nc3nc(C)co3)n2)cc1`, the IC50 is reported as 3.59 µM.
`O=C(Nc1nc(=O)c2ccccc2s1)c1ccc(Cl)cc1` was tested, and the IC50 was > 40 µM (inactive).
With `COc1ccc(-c2nnc(NC(=O)C(C)C)s2)c(OC)c1` the IC50 was “inactive”.
`CCOC(=O)c1c(NC(=O)COC(=O)CCOc2ccccc2C)sc(C(=O)NC)c1C` showed an IC50 of 0.831 µM.
With `CCOC(=O)c1cccc2c(=O)c(C(=O)c3ccc(Cl)cc3)c(C(=O)OC)[nH]c12` the IC50 was > 40 µM (inactive).
`Cc1ccc2nc(N3CCN(c4cccc(C)c4C)CC3)c3nnnn3c2c1` showed an IC50 of 7.32 µM.
With `Cc1nc(N2CCC(C)CC2)c2c(C)c(C(=O)Nc3ccc(C)c(F)c3)sc2n1` the IC50 was > 40 µM (inactive).
In the case of `COc1ccccc1N=Nc1c(O)[nH]c(=S)[nH]c1=O`, the IC50 is reported as > 40 µM (inactive).
With `COc1cccc(C(=O)Nc2ccc(-c3nc4ccccc4o3)c(O)c2)c1` the IC50 was > 40 µM (inactive).
With `Cc1ccc(NC(=S)Nc2nc(CC(=O)Nc3ccccc3)cs2)cc1` the IC50 was 3.84 µM.
For `O=C(CSc1nnc(-c2cccs2)o1)c1ccc2c(c1)OCO2`, the IC50 was “inactive”.
Compound `O=C(COc1ncnc2ccc(Br)cc12)NCc1ccc2c(c1)OCO2` has an IC50 of 1.94 µM.
For `CCCNC(=O)Nc1ccc2c(c1)C(=O)N(C)[C@H]1CC[C@H](CC(=O)NCC3CCCCC3)O[C@@H]1CO2`, the IC50 was > 40 µM (inactive).
With `CCc1ccc(NC(=O)CSc2nc3ncc(Br)cc3[nH]2)cc1` the IC50 was 1.53 µM.
For `COc1ccc(OC)c(Nc2nc(-c3ccccc3O)nc3ccccc23)c1`, the IC50 was 9.61 µM.
With `COc1ccc(/C=C2\SC(=O)N(CCC(=O)Nc3ccccc3)C2=O)cc1OC` the IC50 was “inactive”.
With `CCOc1cc(N(CC)CC)ccc1/C=C(/C#N)c1nc2ccccc2[nH]1` the IC50 was “inactive”.
`COc1ccc(C)cc1NC(=O)c1cc2c(=O)n3ccccc3nc2n1C` was tested, and the IC50 was 3.91 µM.
For `CCN(CC)S(=O)(=O)c1ccc(C(=O)OCCN2C(=O)c3cccc4c(N5CCOCC5)ccc(c34)C2=O)cc1`, the IC50 was > 40 µM (inactive).
In the case of `Clc1nc2c(-c3ccccc3)nnn2c2ccccc12`, the IC50 is reported as > 40 µM (inactive).
With `Cn1c(=O)c2c(nc(SCC(=O)c3cccs3)n2Cc2ccc(F)cc2)n(C)c1=O` the IC50 was > 40 µM (inactive).
`COc1cc(C(=O)Nc2nc(-c3ccc(Cl)cc3)c(C)s2)ccc1OCC(=O)Nc1ccc(F)cc1` was tested, and the IC50 was > 40 µM (inactive).
`Cc1nn(C)c(C)c1N1C(=O)c2cccc3c(N)ccc(c23)C1=O` showed an IC50 of 1.13 µM.
`COc1ccc2nc(SCC(=O)Nc3ccc(S(=O)(=O)N4CCCC4)cc3)c(C#N)cc2c1` was tested, and the IC50 was “inactive”.
`CC(=O)Nc1ccc(N2C(=O)c3cccc4c(O)ccc(c34)C2=O)cc1` showed an IC50 of 0.328 µM.
In the case of `Cc1cc(C)c(NC(=O)CSc2nc(COc3ccccc3)nc3ccccc23)c(C)c1`, the IC50 is reported as 3.42 µM.
Compound `CCc1ccc(-c2nc(NC(=O)c3ccc(OCC(=O)Nc4ccc(F)cc4)c(OC)c3)sc2C)cc1` has an IC50 of 9.3 µM.
`COc1ccccc1-c1ccc2c(c1)C(C)(Cc1cccc(C#N)c1)C(=O)N2` (stereo not drawn) was tested, and the IC50 was > 40 µM (inactive).
With `C=CCn1c(SCCNC(C)=O)nc2cc(-c3ccccc3)sc2c1=O` the IC50 was “inactive”.
With `O=C1c2cccc3c(O)ccc(c23)C(=O)N1Cc1ccco1` the IC50 was “inactive”.
Work on `c1ccc(-c2nc(SCc3nc4ccccc4[nH]3)c3oc4ccccc4c3n2)cc1` yielded an IC50 of 2.4 µM.
For `CNC(=O)c1ccsc1NC(=O)c1sc2ccccc2c1Cl`, the IC50 was “inactive”.
`CC[n+]1c(/C=C/c2c[nH]c3ccccc23)ccc2cc(C)ccc21` was tested, and the IC50 was “inactive”.
`CCOc1cccc2sc(NC(=O)c3ccc(Br)s3)nc12` was tested, and the IC50 was > 40 µM (inactive).
